# According to patent US20090023186A1, “USE OF VALPROIC ACID FOR ENHANCING PRODUCTION OF RECOMBINANT PROTEINS IN MAMMALIAN CELLS” (EXCELLGENE SA, priority 2007, published 2009):
# System: HEK293E cells
# Assay: Influence of temperature on IgG batch titer and comparison with sodium butyrate (Example 2)
# Assay type: cell-based, Human
# Conditions: day 5 after transfection
# Description: No. 14571C-[…]; Lot No. 6A0093; SAFC Biosciences, Lenexa, Kans., USA, “Ex-Cell” medium; note: “Ex-Cell” medium-as used herein-refers to a medium comprising 4 mmol/l L-glutamine) in a 50-ml filter tube each (TPP AG, Trasadingen, Switzerland; Cat. No. 87050, Lot 20050174). In a separate set, 10 million suspension-adapted CHO DG44 cells were resuspended in 0.5 ml of ProCHO5 serum-free medium with 4 mmol/[…] hypoxanthine and 0.194 g/l thymidine (BioWhittaker (Lonza), Belgium; Cat. No. BE12-[…]; Lot No. 7 MB0040; “ProCHO5” medium; note: “ProCHO5” medium-as used herein-refers to a medium comprising 4 mmol/[…] hypoxanthine and 0.194 g/l thymidine) in a 50-ml filter tube each (TPP AG, Trasadingen, Switzerland; Cat. No. 87050, Lot 20050174). Then 12.5 μg plasmid DNA at a concentration of 1 μg/μl was added in each tube with the following composition 50% (6.25 μg) p-LC (SEQ ID NO: 1) 50% (6.25 μg) p-HC (SEQ ID NO: 3). Plasmid p-LC comprises the genetic information for the production of the light chain of an IgG antibody, plasmid p-HC comprises the genetic information for the production of the heavy chain of an IgG antibody. The particular vector constructs used in the present invention can also be obtained from the inventors. The inventors can be contacted via e-mail at […]. Moreover, commercial services do exist that produce any desired nucleotide sequence even comprising several kilobase pairs including complete expression cassettes in plasmid backgrounds (e.g., Invitrogen, Carlsbad, USA; Geneart, Germany.) Thus, providing the genetic sequence information of the plasmids should enable one of ordinary skill in the art to order the plasmids of the present invention at one of the commercial services listed. After shortly mixing the DNA with the cells by gentle shaking, 25 μg of 25-kd linear polyethyleneimine (“PEI”; Polysciences, Eppelheim, Germany; [2]) were added at a concentration of 1 μg/μl to each of the tubes. After shortly mixing by gentle shaking, the filter tubes containing the cells together with the DNA and PEI were transferred into an orbital shaker (Kühner Shaker Cabinet ISF-4-W, “Kühner shaker”, Kühner AG, Birsfelden, Switzerland), and the cells were incubated for 4 hours at 37° C. in a 5% CO2 atmosphere under shaking at 180 rpm. After that time, 4.5 ml of Ex-Cell medium were added to each of the filter tubes containing HEK 293 cells and 4.5 ml of Pro-CHO5 were added to each of the filter tubes containing CHO DG44 cells. […] No. […] Sigma-Aldrich Chemie GmbH, Industriestrasse 25, CH-9471 Buchs SG) was added to the corresponding tubes at the corresponding final concentrations. The cells then were returned into the Kühner shaker. Half the tubes were incubated at 37° C. in a 5% CO2 atmosphere under shaking at 180 rpm, the other half was incubated at 31° C. […] The ELISA was performed as published in prior art. In short, Goat anti-human kappa light chain IgG (Biosource) was used for coating the ELISA-plates, and with AP-conjugated goat anti-human gamma chain IgG (Biosource) the synthesized IgG1 was detected. NPP was used as a substrate for the alkaline phosphatase. Absorption was measured at 405 nm against 490 nm using a microplate reader (SPECTRAmaxTM340; Molecular Devices, Palo Alto, Calif., USA).
# [1] = 3.8 mmol/l VPA, relative to control = 1
smiles,measurement,setting,value
"CCCC(CCC)C(=O)O [VPA, valproic acid]",Batch titer increase at 31° C.,[1],5.3 ± 0.4
same,Batch titer increase at 37° C.,[1],5.3 ± 0.5
same,performance compared with sodium butyrate (batch titer increase),31° C. and 37° C.,slightly better performance than sodium butyrate
